Laboratory results from ChEMBL document CHEMBL4507258 (2021).

Legend:
[1] = system: Tyrosine-protein kinase ABL1 (Homo sapiens), P00519 [M351T]; details: Compound concentration 1000.0 nM
[2] = target: Activin receptor type-2B (Homo sapiens) (UniProt Q13705); details: Compound concentration 1000.0 nM
[3] = target: Activin receptor type-1-like (Homo sapiens) (UniProt P37023); details: Compound concentration 1000.0 nM
[4] = target: Aurora kinase B (Homo sapiens) (UniProt Q96GD4); details: Compound concentration 1000.0 nM
[5] = target: Aurora kinase C (Homo sapiens) (UniProt Q9UQB9); details: Compound concentration 1000.0 nM
[6] = target: Bone morphogenetic protein receptor type-1A (Homo sapiens) (UniProt P36894); details: Compound concentration 1000.0 nM
[7] = target: Bone morphogenetic protein receptor type-2 (Homo sapiens) (UniProt Q13873); details: Compound concentration 1000.0 nM
[8] = system: Serine/threonine-protein kinase B-raf (Homo sapiens), P15056 [V600E]; details: Compound concentration 1000.0 nM
[9] = target: Calcium/calmodulin-dependent protein kinase kinase 1 (Homo sapiens) (UniProt Q8N5S9); details: Compound concentration 1000.0 nM
[10] = target: Cyclin-dependent kinase 3 (Homo sapiens) (UniProt Q00526); details: Compound concentration 1000.0 nM
[11] = target: Cyclin-dependent kinase 4 (Homo sapiens) (UniProt P11802); details: Compound concentration 1000.0 nM
[12] = target: Cyclin-dependent kinase 5 (Homo sapiens) (UniProt Q00535); details: Compound concentration 1000.0 nM
[13] = target: Death-associated protein kinase 3 (Homo sapiens, UniProt O43293); details: Compound concentration 1000.0 nM
[14] = system: Epidermal growth factor receptor (Homo sapiens), P00533 [UNDEFINED MUTATION]; details: Compound concentration 1000.0 nM
Chain of Epidermal growth factor receptor (Homo sapiens), P00533 [UNDEFINED MUTATION] (P00533 whole entry, looked up, change not shown): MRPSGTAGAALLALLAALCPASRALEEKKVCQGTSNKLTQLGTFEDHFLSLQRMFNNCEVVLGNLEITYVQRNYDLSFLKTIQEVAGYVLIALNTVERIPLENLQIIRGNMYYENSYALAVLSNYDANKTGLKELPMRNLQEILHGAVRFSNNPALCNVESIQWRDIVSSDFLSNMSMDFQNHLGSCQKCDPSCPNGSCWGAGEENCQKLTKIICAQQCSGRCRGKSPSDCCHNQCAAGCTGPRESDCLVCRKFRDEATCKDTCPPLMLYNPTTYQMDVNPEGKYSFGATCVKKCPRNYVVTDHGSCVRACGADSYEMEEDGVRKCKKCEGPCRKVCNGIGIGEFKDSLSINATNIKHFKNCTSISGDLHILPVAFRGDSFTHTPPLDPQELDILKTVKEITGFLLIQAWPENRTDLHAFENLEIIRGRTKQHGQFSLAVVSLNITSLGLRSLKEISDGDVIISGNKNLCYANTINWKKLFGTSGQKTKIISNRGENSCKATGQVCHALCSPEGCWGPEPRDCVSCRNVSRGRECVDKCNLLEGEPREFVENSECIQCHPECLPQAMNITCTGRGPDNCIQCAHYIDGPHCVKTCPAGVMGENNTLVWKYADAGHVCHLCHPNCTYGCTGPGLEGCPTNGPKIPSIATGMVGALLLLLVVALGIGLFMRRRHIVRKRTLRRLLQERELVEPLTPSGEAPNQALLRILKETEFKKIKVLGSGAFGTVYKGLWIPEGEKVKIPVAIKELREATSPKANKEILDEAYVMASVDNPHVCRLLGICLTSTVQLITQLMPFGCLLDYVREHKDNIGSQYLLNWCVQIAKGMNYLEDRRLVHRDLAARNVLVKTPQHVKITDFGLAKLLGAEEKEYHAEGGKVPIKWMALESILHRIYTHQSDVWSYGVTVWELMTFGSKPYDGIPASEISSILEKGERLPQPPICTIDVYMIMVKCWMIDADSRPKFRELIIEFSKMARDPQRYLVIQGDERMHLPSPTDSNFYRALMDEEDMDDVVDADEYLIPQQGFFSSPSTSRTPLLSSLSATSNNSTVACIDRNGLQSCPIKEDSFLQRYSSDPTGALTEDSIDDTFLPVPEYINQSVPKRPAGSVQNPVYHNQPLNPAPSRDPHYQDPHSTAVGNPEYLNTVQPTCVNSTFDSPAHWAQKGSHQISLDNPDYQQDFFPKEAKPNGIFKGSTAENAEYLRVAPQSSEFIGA

[15] = system: Epidermal growth factor receptor (Homo sapiens), P00533 [UNDEFINED MUTATION]; details: Compound concentration 1000.0 nM; remark: listed apart in the source
[16] = system: Epidermal growth factor receptor (Homo sapiens), P00533 [UNDEFINED MUTATION]; details: Compound concentration 1000.0 nM; remark: listed apart in the source
[17] = target: Mitogen-activated protein kinase 3 (Homo sapiens) (UniProt P27361); details: Compound concentration 1000.0 nM
[18] = target: Receptor-type tyrosine-protein kinase FLT3 (Homo sapiens) (UniProt P36888); details: Compound concentration 1000.0 nM
[19] = system: Receptor-type tyrosine-protein kinase FLT3 (Homo sapiens), P36888 [D835H]; details: Compound concentration 1000.0 nM
[20] = target: G protein-coupled receptor kinase 4 (Homo sapiens) (UniProt P32298); details: Compound concentration 1000.0 nM
[21] = target: Insulin-like growth factor 1 receptor (Homo sapiens) (UniProt P08069); details: Compound concentration 1000.0 nM
[22] = target: Insulin receptor (Homo sapiens) (UniProt P06213); details: Compound concentration 1000.0 nM
Chain of Insulin receptor (Homo sapiens) (P06213 28-758 limits assumed): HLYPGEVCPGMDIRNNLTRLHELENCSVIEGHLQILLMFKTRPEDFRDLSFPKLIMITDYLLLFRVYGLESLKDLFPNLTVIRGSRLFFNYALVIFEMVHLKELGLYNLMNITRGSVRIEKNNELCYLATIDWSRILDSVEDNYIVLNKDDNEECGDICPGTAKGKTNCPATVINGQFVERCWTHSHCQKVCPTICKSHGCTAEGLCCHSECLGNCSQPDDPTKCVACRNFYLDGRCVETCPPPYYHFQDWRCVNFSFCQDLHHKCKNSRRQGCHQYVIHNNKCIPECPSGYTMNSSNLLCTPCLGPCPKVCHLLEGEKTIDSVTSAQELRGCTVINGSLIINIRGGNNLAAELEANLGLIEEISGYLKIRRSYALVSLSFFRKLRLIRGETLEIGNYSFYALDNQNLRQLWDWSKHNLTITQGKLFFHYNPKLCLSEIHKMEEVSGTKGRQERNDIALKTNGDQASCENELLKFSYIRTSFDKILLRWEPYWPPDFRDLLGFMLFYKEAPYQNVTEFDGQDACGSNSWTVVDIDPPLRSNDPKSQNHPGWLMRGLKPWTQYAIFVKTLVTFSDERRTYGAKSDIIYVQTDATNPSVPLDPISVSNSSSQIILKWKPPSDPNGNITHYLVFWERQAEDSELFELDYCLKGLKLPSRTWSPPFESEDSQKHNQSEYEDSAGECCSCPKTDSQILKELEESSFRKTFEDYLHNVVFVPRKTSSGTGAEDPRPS
Chain of Insulin receptor (Homo sapiens) (P06213 763-1382 limits assumed): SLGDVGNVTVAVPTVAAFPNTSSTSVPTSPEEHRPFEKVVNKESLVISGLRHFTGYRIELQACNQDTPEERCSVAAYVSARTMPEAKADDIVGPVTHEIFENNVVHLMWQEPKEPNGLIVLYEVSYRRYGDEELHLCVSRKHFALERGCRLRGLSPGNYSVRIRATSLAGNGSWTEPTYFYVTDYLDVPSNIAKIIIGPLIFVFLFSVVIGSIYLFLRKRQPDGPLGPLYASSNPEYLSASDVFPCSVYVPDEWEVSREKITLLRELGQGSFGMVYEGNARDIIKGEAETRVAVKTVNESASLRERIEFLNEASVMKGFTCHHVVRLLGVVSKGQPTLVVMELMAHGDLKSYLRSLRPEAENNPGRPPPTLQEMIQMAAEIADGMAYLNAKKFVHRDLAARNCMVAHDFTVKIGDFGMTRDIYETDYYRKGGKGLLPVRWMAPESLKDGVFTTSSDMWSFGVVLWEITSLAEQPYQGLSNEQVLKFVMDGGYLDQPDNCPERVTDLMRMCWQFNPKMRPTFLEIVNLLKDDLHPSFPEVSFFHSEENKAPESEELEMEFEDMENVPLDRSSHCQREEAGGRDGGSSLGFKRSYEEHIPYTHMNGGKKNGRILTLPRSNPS

[23] = target: Leukocyte tyrosine kinase receptor (Homo sapiens) (UniProt P29376); details: Compound concentration 1000.0 nM
[24] = target: Myosin light chain kinase (Homo sapiens) (UniProt Q32MK0); details: Compound concentration 1000.0 nM
[25] = target: Mitogen-activated protein kinase kinase kinase 10 (Homo sapiens) (UniProt Q02779); details: Compound concentration 1000.0 nM
[26] = target: Macrophage-stimulating protein receptor (Homo sapiens) (UniProt Q04912); details: Compound concentration 1000.0 nM
Chain of Macrophage-stimulating protein receptor (Homo sapiens) (Q04912 25-304 limits assumed): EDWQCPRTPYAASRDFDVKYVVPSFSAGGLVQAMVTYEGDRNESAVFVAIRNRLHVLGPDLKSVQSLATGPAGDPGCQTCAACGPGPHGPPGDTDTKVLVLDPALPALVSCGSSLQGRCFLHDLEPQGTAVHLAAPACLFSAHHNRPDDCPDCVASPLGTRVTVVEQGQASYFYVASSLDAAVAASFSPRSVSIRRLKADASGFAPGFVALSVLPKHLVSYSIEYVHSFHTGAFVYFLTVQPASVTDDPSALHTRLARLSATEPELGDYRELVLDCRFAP
Chain of Macrophage-stimulating protein receptor (Homo sapiens) (Q04912 310-1400 limits assumed): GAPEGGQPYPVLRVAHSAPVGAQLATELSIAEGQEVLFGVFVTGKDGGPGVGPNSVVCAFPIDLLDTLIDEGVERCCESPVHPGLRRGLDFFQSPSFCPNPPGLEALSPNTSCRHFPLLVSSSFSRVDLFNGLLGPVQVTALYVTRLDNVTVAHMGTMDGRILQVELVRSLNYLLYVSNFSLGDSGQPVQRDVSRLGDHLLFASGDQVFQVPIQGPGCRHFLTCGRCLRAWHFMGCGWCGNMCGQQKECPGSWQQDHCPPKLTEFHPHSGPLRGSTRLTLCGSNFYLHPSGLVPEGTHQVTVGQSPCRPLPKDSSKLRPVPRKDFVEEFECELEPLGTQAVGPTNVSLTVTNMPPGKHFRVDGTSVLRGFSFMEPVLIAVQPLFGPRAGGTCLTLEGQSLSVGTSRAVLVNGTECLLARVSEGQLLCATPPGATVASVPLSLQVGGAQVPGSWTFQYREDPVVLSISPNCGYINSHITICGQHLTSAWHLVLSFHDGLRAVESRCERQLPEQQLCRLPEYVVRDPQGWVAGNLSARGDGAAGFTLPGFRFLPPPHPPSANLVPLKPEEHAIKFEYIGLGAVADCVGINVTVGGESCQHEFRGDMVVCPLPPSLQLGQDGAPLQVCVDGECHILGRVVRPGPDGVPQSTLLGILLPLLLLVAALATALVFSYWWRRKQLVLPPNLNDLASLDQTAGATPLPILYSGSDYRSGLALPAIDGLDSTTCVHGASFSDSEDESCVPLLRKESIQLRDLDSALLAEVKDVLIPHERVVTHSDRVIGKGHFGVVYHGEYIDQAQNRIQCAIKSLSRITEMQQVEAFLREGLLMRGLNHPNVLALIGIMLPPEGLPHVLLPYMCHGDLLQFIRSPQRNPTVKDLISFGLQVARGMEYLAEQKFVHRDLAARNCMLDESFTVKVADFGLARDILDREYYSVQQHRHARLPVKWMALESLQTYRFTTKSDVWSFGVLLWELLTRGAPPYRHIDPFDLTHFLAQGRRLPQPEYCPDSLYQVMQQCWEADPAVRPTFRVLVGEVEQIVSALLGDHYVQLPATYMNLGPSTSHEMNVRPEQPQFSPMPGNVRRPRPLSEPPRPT

[27] = target: Serine/threonine-protein kinase 24 (Homo sapiens) (UniProt Q9Y6E0); details: Compound concentration 1000.0 nM
[28] = target: Serine/threonine-protein kinase Nek7 (Homo sapiens) (UniProt Q8TDX7); details: Compound concentration 1000.0 nM
[29] = target: Cyclin-dependent kinase 15 (Homo sapiens) (UniProt Q96Q40); details: Compound concentration 1000.0 nM
Chain of Cyclin-dependent kinase 15 (Homo sapiens) (Q96Q40 whole entry): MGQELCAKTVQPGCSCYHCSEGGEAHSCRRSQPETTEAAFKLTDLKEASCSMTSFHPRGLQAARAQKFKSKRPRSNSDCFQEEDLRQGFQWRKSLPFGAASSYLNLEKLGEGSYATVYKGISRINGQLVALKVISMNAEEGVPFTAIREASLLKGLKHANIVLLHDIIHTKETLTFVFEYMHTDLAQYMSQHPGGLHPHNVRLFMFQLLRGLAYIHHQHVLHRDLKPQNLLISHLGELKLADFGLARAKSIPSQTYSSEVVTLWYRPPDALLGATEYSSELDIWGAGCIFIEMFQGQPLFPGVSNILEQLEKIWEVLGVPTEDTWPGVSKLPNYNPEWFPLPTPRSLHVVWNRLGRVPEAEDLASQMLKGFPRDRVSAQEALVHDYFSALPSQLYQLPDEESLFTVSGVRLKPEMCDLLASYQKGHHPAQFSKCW

[30] = target: Cyclin-dependent kinase 14 (Homo sapiens) (UniProt O94921); details: Compound concentration 1000.0 nM
[31] = target: Proto-oncogene tyrosine-protein kinase receptor Ret (Homo sapiens) (UniProt P07949); details: Compound concentration 1000.0 nM
[32] = target: Serine/threonine-protein kinase RIO3 (Homo sapiens) (UniProt O14730); details: Compound concentration 1000.0 nM
[33] = target: Serine/threonine-protein kinase Sgk2 (Homo sapiens) (UniProt Q9HBY8); details: Compound concentration 1000.0 nM
[34] = target: Serine/threonine-protein kinase 36 (Homo sapiens) (UniProt Q9NRP7); details: Compound concentration 1000.0 nM
[35] = target: Non-receptor tyrosine-protein kinase TNK1 (Homo sapiens) (UniProt Q13470); details: Compound concentration 1000.0 nM
Chain of Non-receptor tyrosine-protein kinase TNK1 (Homo sapiens) (Q13470 whole entry): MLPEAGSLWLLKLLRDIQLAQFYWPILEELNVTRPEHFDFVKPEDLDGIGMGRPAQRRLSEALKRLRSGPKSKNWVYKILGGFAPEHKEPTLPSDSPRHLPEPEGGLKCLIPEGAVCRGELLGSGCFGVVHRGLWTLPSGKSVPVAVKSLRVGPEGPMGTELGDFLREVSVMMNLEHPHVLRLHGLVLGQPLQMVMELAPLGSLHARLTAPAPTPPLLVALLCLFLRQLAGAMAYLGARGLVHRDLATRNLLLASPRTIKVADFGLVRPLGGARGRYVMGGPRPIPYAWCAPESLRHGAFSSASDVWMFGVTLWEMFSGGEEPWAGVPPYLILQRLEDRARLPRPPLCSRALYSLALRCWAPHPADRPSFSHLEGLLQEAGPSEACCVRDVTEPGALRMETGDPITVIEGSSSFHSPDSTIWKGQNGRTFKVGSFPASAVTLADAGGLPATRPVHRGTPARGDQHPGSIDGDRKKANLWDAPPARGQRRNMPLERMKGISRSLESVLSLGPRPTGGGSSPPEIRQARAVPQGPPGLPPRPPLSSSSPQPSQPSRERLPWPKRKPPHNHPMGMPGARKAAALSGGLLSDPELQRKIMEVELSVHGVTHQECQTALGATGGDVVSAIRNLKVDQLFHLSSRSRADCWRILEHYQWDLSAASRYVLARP

[36] = target: Serine/threonine-protein kinase TNNI3K (Homo sapiens) (UniProt Q59H18); details: Compound concentration 1000.0 nM
[37] = target: T1, Muscarinic acetylcholine receptor M2 (Homo sapiens) (UniProt P08172); details: Compound concentration 10.0 uM
T1 sequence (whole entry): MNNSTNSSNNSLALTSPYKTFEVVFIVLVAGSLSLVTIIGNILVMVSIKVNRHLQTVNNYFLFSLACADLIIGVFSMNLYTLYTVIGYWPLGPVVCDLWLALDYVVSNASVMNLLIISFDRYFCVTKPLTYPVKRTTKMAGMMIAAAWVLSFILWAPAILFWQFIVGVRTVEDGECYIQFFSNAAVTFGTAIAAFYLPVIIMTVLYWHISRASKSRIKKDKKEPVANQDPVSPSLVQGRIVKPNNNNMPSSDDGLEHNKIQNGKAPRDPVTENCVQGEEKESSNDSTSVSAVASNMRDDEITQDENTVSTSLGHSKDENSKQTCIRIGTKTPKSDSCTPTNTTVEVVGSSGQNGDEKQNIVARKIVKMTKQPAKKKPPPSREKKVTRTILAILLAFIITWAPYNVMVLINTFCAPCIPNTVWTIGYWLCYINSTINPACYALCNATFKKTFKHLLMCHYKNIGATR

[38] = target: GABA-A receptor; anion channel (Rattus norvegicus) (UniProt O09028+P15431+P18506+P18508+P19969+P20236+P23574+P23576+P28471+P28473+P30191+P62813+P63079+P63138+Q91ZM7+Q9ES14); details: Compound concentration 10.0 uM

Row | SMILES | residual activity [1] | residual activity [2] | residual activity [3] | residual activity [4] | residual activity [5] | residual activity [6] | residual activity [7] | residual activity [8] | residual activity [9] | residual activity [10] | residual activity [11] | residual activity [12] | residual activity [13] | residual activity [14] | residual activity [15] | residual activity [16] | residual activity [17] | residual activity [18] | residual activity [19] | residual activity [20] | also measured
1 | CCCCN(CCCC)C(=O)CN1C[C@@H](c2cc(OC)c3c(c2)OCO3)[C@H](C(=O)O)[C@H]1CC(C)(C)CCC [A-545] | 100% | 85.1% | 99.4% | 100% | 100% | 100% | 86.7% | 100% | 100% | 88.1% | 100% | 97.7% | 100% | 70.3% | 88.4% | 100% | 100% | 91.9% | 100% | 95.8% | residual activity [21]: 97%; residual activity [22]: 89%; residual activity [23]: 94.1%; residual activity [24]: 100%; residual activity [25]: 65.4%; residual activity [26]: 100%; residual activity [27]: 93.9%; residual activity [28]: 86.6%; residual activity [29]: 93.8%; residual activity [30]: 100%; residual activity [31]: 86.1%; residual activity [32]: 100%; residual activity [33]: 78.5%; residual activity [34]: 75%; residual activity [35]: 100%; residual activity [36]: 95.9%; inhibition [37]: 3.71%; inhibition [38]: 8.52%
2 | CCCCN(CCCC)C(=O)CN1C[C@H](c2cc(OC)c3c(c2)OCO3)[C@@H](C(=O)O)[C@@H]1CC(C)(C)CCC [ABT-546] | 96.9% | 100% | 100% | 100% | 100% | 86.9% | 80% | 89.1% | 100% | 100% | 42.7% | 100% | 100% | 100% | 94.3% | 95.6% | 100% | 100% | 100% | 100% | residual activity [21]: 100%; residual activity [22]: 75.8%; residual activity [23]: 100%; residual activity [24]: 100%; residual activity [25]: 97%; residual activity [26]: 100%; residual activity [27]: 100%; residual activity [28]: 100%; residual activity [29]: 100%; residual activity [30]: 100%; residual activity [31]: 100%; residual activity [32]: 74.9%; residual activity [33]: 69.9%; residual activity [34]: 100%; residual activity [35]: 100%; residual activity [36]: 100%; inhibition [37]: -1.89%; inhibition [38]: 19.7%
